Measured values from PubChem BioAssay AID256 (DTP/NCI, 2004).
“And” between values parts separate entries of the source, which are not always exact repeats. Equal entries are not always repeated. Inconclusive results and toxic doses are left out. How the source made its calls: active means survival T/C of 150% or more; inactive means T/C below 125% in these data.

Test system: CD2F1 mice, L1210 leukemia ip, survival T/C
Assay: NCI In Vivo Anticancer Drug Screen. Data for tumor model L1210 Leukemia (intraperitoneal) in CD2F1 (CDF1) mice
Conditions: higher = longer survival
Summary of the method: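 Read-out first: treated-group measurement over vehicle-control measurement, expressed as a ratio. Animals bore a transplanted tumor line and were dosed with compound or vehicle.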

[1] = endpoint: mean survival time, dose: 25.0 mg/kg/injection, schedule: Q04DX002 (ip), vehicle: saline with Tween-80
[2] = endpoint: mean survival time, dose: 50.0 mg/kg/injection, schedule: Q04DX002 (ip), vehicle: saline with Tween-80
[3] = endpoint: mean survival time, dose: 100.0 mg/kg/injection, schedule: Q04DX003 (ip), vehicle: saline with Tween-80
[4] = endpoint: mean survival time, dose: 200.0 mg/kg/injection, schedule: Q04DX003 (ip), vehicle: saline with Tween-80
[5] = endpoint: mean survival time, dose: 400.0 mg/kg/injection, schedule: Q04DX003 (ip), vehicle: saline with Tween-80
[6] = endpoint: mean survival time, dose: 100.0 mg/kg/injection, schedule: Q01DX009 (ip), vehicle: saline with Tween-80

Measured: T/C

COc1ccccc1[As](=O)(O)CC(O)COc1ccc(Cl)cc1Cl (configuration not stated)
inactive: endpoint: mean survival time, dose: 6.25 mg/kg/injection, schedule: Q04DX003 (ip), vehicle: saline 98 % of control | endpoint: mean survival time, dose: 12.5 mg/kg/injection, schedule: Q04DX003 (ip), vehicle: saline 96 % of control

O=C(O)c1ccc(CCCBr)cc1
inactive: endpoint: mean survival time, dose: 100.0 mg/kg/injection, schedule: Q04DX003 (ip), vehicle: other 107 % of control | endpoint: mean survival time, dose: 200.0 mg/kg/injection, schedule: Q04DX003 (ip), vehicle: other 106 % of control | endpoint: mean survival time, dose: 400.0 mg/kg/injection, schedule: Q04DX003 (ip), vehicle: other 101 % of control

N#CC(=N)N1CCN(C(=N)C#N)CC1
inactive: [1] 93 % of control | [2] 86 % of control | endpoint: mean survival time, dose: 100.0 mg/kg/injection, schedule: Q01DX001 (ip), vehicle: saline 97 % of control

CCOC(=O)C(Cc1ccccc1C(=O)NC)c1ccccc1 (configuration not stated)
inactive: [3] 94 % of control | [4] 94 % of control | endpoint: mean survival time, dose: 400.0 mg/kg/injection, schedule: Q01DX009 (ip), vehicle: saline sonified 92 % of control | [5] 100 % of control

CC1(C)CC(=O)C2(CNC3=C(CCC(C)(C)C3)C2)C(=O)C1
inactive: [2] 91 % of control | endpoint: mean survival time, dose: 100.0 mg/kg/injection, schedule: Q04DX002 (ip), vehicle: saline with Tween-80 91 % of control | endpoint: mean survival time, dose: 200.0 mg/kg/injection, schedule: Q04DX002 (ip), vehicle: saline with Tween-80 100 % of control | endpoint: mean survival time, dose: 400.0 mg/kg/injection, schedule: Q04DX002 (ip), vehicle: saline with Tween-80 91 % of control

CNCc1ccc2c(c1)OCO2
inactive: endpoint: mean survival time, dose: 75.0 mg/kg/injection, schedule: Q01DX001 (ip), vehicle: saline 100 % of control | endpoint: mean survival time, dose: 150.0 mg/kg/injection, schedule: Q01DX001 (ip), vehicle: saline 103 % of control

[CH-]=C([CH2-])C.[Ni][Br].c1ccc([PH+](c2ccccc2)c2ccccc2)cc1
inactive: endpoint: mean survival time, dose: 25.0 mg/kg/injection, schedule: Q01DX001 (ip), vehicle: saline with Tween-80 101 % of control | endpoint: mean survival time, dose: 50.0 mg/kg/injection, schedule: Q01DX001 (ip), vehicle: saline with Tween-80 101 % of control | endpoint: mean survival time, dose: 100.0 mg/kg/injection, schedule: Q01DX001 (ip), vehicle: saline with Tween-80 108 % of control

FC(F)(F)C(Cl)(c1ccc(Cl)cc1)c1ccc(Cl)cc1
inactive: endpoint: mean survival time, dose: 50.0 mg/kg/injection, schedule: Q04DX003 (sc), vehicle: olive oil, sesame oil, peanut oil 101 % of control | endpoint: mean survival time, dose: 100.0 mg/kg/injection, schedule: Q04DX003 (sc), vehicle: olive oil, sesame oil, peanut oil 108 % of control | endpoint: mean survival time, dose: 200.0 mg/kg/injection, schedule: Q04DX003 (sc), vehicle: olive oil, sesame oil, peanut oil 97 % of control | endpoint: mean survival time, dose: 400.0 mg/kg/injection, schedule: Q04DX003 (sc), vehicle: olive oil, sesame oil, peanut oil 101 % of control

O=C(/C=C\c1ccc(NCc2ccc(C(=O)O)cc2)cc1)CCl
inactive: [6] 111 % of control | [4] 91 % of control | [5] 86 % of control

O=c1cc[nH]c(=O)n1C1OC(CO)C(O)C1O (configuration not stated)
inactive: endpoint: mean survival time, dose: 100.0 mg/kg/injection, schedule: Q01DX005 (ip), vehicle: saline 104 % of control | endpoint: mean survival time, dose: 200.0 mg/kg/injection, schedule: Q01DX005 (ip), vehicle: saline 113 % of control

Cc1ccc([N+](=O)[O-])cc1NC(=O)C(Cl)(Cl)Cl
inactive: [3] 93 % of control | [4] 93 % of control | [5] 107 % of control

CC(=O)OC(CCl)C(Cl)CCl (configuration not stated)
inactive: endpoint: mean survival time, dose: 12.5 mg/kg/injection, schedule: Q04DX002 (ip), vehicle: saline with Tween-80 103 % of control | [1] 106 % of control | [2] 92 % of control | endpoint: mean survival time, dose: 100.0 mg/kg/injection, schedule: Q01DX001 (ip), vehicle: saline sonified 95 % of control | endpoint: mean survival time, dose: 200.0 mg/kg/injection, schedule: Q01DX001 (ip), vehicle: saline sonified 95 % of control | endpoint: mean survival time, dose: 400.0 mg/kg/injection, schedule: Q01DX001 (ip), vehicle: saline sonified 108 % of control

CCSc1nc(C)cc(Cl)n1
inactive: endpoint: mean survival time, dose: 50.0 mg/kg/injection, schedule: Q01DX009 (ip), vehicle: saline with Tween-80 102 % of control | [6] 104 % of control | endpoint: mean survival time, dose: 200.0 mg/kg/injection, schedule: Q01DX009 (ip), vehicle: saline with Tween-80 105 % of control

COc1oc(C2C/C(=C/C(C)=C/C(C)=C/C(C)=C/c3ccc([N+](=O)[O-])cc3)CO2)c(C)c(=O)c1C (configuration not stated)
inactive: endpoint: median survival time, dose: 0.25 mg/kg/injection, schedule: Q01DX009 (ip), vehicle: saline 104 % of control and 108 % of control | endpoint: median survival time, dose: 0.5 mg/kg/injection, schedule: Q01DX009 (ip), vehicle: saline 118 % of control and 124 % of control and 112 % of control | endpoint: median survival time, dose: 1.0 mg/kg/injection, schedule: Q01DX009 (ip), vehicle: saline 118 % of control and 124 % of control | endpoint: median survival time, dose: 2.0 mg/kg/injection, schedule: Q01DX009 (ip), vehicle: saline 120 % of control | endpoint: median survival time, dose: 4.0 mg/kg/injection, schedule: Q01DX009 (ip), vehicle: saline 103 % of control
